Measured values: patent publication US7816387B2, “β secretase inhibitor” (Dainippon Sumitomo Pharma Co., Ltd., priority 2005, dated 2010)

System: Human Neuroblastoma IMR-32 Cell
Experiment: Inhibition of production and secretion of Aβ in IMR-32 cells (ELISA of Aβ)
Format: cell-based
Details: 24 hours incubation, Aβ in supernatant by ELISA
Procedure: 1) Incubation of IMR-32 Cell
IMR-32 cells (American Type Culture Collection Inc.) were seeded to 35 mmφPetri dish (FALCON Ltd.) at 37° C. for 2 to 3 days at 1.5×10^5 cells/petri dish. A DMSO solution containing test compound was dissolved in a 0.2% bovine serum albumin (Sigma Inc.)/Dulbecco's modified Eagle medium (Sigma Inc.), and a 1 mL of the mixture was added to the above Petri dish and the mixture was incubated for additional 24 hours. A 0.2% bovine serum albumin/Dulbecco's modified Eagle medium without the test compound was used as a control. The supernatant was collected and centrifuged at 5000 rpm for 5 minutes to precipitate a suspension cell. After centrifugation, the supernatant was used as a measurement sample of Aβ.
(2) Determination by Enzyme-Linked Immunoassay (ELISA) of Aβ
To a maxi sorp 96 well plate (Nunc Inc.) was added 50 μL portions of 4G8 antibody (Sigma Inc.) dissolved in 0.1M carbonate buffer (pH 9.5) and the mixture was allowed to stand at 4° C. overnight. […] After washing three times with PBST, color was developed by TMB substrate kit (Pias Inc.) and the calorimetric method (measured wavelength: 450 nm) was determined by a plate reader (ELx 808, BIO-TEK INSTRUMENTS Inc.).

IC50: 0.2 µM
SMILES: C[C@@H](NC(=O)c1cc(C(=O)N[C@@H](Cc2ccccc2)[C@@H](O)C(=O)Nc2ncc[nH]2)cc(N(C)S(C)(=O)=O)c1)c1ccccc1 [Example 1, N-[(1S,2R)-1-Benzyl-2-hydroxy-3-(1H-imidazol-2-ylamino)-3-oxopropyl]-5-[methyl(methylsulfonyl)amino]-N′-[(1R)-1-phenylethyl]isophthalamide]
